This is an account of results in ChEMBL document CHEMBL5465560, “Selectivity Literature for EUbOPEN Chemogenomic Library” (2024).

In test [1] the target is Serine/threonine-protein kinase PLK2 (Homo sapiens, UniProt Q9NYY3). Nature of the test: Selectivity interaction (KinomeScan (DiscoverX)) EUB0001079a PLK2. The following applies: at 1 µM.
The target in test [2] is Serine/threonine-protein kinase 24 (Homo sapiens) (UniProt Q9Y6E0). Nature of the test: Selectivity interaction (KinomeScan (DiscoverX)) EUB0000092b STK24. The following applies: at 10 µM.
Chain of Serine/threonine-protein kinase 24 (Homo sapiens) (Q9Y6E0 whole entry, looked up): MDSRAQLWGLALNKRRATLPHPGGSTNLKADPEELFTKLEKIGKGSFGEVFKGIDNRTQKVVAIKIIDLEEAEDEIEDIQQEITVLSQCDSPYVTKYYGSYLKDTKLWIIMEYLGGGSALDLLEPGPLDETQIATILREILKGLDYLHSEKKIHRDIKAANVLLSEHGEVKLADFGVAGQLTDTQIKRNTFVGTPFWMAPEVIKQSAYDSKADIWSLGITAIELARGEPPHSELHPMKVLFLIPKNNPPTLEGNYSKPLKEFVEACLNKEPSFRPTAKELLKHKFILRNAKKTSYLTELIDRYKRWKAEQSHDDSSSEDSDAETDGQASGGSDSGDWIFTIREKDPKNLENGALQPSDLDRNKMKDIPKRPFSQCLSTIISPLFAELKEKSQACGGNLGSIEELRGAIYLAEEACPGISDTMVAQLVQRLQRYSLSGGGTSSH
Test [3] deals with T1, Mitogen-activated protein kinase kinase kinase 12 (Homo sapiens) (UniProt Q12852).
T1 sequence (whole entry): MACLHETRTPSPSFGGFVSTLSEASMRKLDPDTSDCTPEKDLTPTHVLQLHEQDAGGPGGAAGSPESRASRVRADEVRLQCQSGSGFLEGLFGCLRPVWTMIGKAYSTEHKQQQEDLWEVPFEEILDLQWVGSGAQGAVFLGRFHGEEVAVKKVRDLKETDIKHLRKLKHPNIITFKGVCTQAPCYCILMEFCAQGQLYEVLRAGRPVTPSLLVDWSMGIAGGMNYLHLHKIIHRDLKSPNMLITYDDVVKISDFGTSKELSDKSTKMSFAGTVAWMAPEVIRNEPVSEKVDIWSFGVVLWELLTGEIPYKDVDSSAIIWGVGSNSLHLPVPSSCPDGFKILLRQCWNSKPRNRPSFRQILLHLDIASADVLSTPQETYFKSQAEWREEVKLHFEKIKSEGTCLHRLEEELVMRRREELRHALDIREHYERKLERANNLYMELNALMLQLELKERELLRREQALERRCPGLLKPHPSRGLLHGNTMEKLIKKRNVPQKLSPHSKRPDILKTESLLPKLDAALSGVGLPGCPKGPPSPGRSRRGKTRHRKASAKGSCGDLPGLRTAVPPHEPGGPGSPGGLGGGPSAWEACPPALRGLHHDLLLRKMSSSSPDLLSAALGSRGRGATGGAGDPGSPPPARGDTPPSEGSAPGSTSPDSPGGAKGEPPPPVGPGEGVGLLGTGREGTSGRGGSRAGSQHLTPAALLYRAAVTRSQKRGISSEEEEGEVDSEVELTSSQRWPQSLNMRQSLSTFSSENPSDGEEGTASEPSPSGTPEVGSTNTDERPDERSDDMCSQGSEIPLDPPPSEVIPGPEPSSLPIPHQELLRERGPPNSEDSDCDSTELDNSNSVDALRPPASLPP
The experiment in a line: Selectivity interaction (KinomeScan (DiscoverX)) EUB0001049a MAP3K12. The following applies: at 1 µM.

Test [4] deals with Serine/threonine-protein kinase N2 (Homo sapiens, UniProt Q16513). The experiment in a line: Selectivity interaction (KinomeScan (DiscoverX)) EUB0000045b PKN2.
Chain of Serine/threonine-protein kinase N2 (Q16513 whole entry, looked up): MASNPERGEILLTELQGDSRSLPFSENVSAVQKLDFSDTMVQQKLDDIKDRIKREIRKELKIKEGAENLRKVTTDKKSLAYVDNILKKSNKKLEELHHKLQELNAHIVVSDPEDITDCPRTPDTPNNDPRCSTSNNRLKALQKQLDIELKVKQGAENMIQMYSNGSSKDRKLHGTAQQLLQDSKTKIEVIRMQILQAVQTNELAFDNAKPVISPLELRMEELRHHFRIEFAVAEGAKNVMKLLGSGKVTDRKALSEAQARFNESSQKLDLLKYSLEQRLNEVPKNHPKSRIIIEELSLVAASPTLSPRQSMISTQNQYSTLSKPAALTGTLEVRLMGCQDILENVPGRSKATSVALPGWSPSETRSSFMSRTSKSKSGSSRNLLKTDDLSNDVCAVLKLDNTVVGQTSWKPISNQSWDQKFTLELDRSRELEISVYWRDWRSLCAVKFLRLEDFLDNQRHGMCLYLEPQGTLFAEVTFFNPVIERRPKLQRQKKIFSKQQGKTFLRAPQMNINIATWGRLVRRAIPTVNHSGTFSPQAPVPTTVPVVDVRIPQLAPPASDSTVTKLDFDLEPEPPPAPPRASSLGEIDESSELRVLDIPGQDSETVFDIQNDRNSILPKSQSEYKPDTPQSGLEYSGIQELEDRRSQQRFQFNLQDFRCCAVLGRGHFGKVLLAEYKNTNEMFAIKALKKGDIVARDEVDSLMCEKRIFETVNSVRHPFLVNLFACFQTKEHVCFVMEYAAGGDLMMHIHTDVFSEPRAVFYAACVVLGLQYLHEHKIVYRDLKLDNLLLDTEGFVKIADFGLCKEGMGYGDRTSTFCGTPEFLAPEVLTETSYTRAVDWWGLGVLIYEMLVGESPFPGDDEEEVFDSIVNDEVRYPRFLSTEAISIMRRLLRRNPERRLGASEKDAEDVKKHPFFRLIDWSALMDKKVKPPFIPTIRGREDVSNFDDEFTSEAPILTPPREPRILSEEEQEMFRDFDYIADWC
Test [5] has as its target Platelet-derived growth factor receptor beta (Homo sapiens, UniProt P09619). The experiment in a line: Selectivity interaction (Kinase panel (Z-LYTE Assay)) EUB0001632a PDGFRB. The following applies: at 10 µM.
Test [6] concerns the target Cyclin-dependent kinase 4/cyclin D1 (Homo sapiens, UniProt P11802). Nature of the test: Selectivity interaction (Competition-binding assay (DiscoverX)) EUB0001632a CDK4. The format is protein-complex assay.
For test [7], the target named is T2, Serine/threonine-protein kinase BRSK2 (Homo sapiens) (UniProt Q8IWQ3).
T2 sequence (whole entry): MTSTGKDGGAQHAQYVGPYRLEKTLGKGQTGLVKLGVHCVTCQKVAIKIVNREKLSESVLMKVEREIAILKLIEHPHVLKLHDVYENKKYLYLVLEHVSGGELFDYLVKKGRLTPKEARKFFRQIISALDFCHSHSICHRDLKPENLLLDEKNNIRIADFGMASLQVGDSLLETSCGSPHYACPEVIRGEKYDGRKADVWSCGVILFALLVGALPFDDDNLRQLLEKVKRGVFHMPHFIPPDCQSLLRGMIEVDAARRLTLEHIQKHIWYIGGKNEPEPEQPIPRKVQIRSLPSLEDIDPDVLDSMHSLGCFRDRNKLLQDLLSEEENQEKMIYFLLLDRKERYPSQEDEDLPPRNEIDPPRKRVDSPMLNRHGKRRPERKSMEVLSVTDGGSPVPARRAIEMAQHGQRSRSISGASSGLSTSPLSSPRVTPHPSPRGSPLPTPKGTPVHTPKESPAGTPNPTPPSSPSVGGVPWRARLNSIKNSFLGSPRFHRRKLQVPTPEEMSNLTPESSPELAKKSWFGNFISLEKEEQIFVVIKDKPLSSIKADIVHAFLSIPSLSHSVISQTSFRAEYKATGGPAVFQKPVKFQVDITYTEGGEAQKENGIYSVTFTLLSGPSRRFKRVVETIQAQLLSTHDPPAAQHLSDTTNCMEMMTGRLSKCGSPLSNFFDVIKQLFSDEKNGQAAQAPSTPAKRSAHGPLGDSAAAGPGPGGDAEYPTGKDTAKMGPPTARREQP
Nature of the test: Selectivity interaction (KinomeScan (DiscoverX)) EUB0000607a BRSK2. The following applies: at 10 µM.

Test [8] deals with Protein kinase C beta type (Homo sapiens, UniProt P05771). The experiment in a line: Selectivity interaction (Kinase panel (Invitrogen)) EUB0000639a PRKCB. The following applies: at 200 nM.
For test [9], the target named is Serine/threonine-protein kinase Nek7 (Homo sapiens) (UniProt Q8TDX7). The experiment in a line: Selectivity interaction (ActivX KiNativ screen (kinase selectivity in THP-1 cell lysates)) EUB0000639a NEK7. The following applies: lysate, at 5 µM. In kind it is subcellular.
Chain of Serine/threonine-protein kinase Nek7 (Homo sapiens) (Q8TDX7 whole entry, looked up): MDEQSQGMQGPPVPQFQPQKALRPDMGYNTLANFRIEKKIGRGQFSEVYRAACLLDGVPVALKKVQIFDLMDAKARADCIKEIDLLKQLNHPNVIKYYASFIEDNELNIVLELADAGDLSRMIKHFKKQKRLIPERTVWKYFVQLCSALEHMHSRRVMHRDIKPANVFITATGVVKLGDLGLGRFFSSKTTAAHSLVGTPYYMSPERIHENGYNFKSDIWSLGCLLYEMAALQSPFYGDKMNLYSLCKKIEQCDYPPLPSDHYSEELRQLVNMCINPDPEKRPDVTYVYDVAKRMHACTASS
The target of test [10] is Myosin light chain kinase, smooth muscle (Homo sapiens, UniProt Q15746). The experiment in a line: Selectivity interaction (KinomeScan (DiscoverX)) EUB0000229b MYLK. To be noted: at 10 µM.
Chain of Myosin light chain kinase, smooth muscle (Q15746 whole entry): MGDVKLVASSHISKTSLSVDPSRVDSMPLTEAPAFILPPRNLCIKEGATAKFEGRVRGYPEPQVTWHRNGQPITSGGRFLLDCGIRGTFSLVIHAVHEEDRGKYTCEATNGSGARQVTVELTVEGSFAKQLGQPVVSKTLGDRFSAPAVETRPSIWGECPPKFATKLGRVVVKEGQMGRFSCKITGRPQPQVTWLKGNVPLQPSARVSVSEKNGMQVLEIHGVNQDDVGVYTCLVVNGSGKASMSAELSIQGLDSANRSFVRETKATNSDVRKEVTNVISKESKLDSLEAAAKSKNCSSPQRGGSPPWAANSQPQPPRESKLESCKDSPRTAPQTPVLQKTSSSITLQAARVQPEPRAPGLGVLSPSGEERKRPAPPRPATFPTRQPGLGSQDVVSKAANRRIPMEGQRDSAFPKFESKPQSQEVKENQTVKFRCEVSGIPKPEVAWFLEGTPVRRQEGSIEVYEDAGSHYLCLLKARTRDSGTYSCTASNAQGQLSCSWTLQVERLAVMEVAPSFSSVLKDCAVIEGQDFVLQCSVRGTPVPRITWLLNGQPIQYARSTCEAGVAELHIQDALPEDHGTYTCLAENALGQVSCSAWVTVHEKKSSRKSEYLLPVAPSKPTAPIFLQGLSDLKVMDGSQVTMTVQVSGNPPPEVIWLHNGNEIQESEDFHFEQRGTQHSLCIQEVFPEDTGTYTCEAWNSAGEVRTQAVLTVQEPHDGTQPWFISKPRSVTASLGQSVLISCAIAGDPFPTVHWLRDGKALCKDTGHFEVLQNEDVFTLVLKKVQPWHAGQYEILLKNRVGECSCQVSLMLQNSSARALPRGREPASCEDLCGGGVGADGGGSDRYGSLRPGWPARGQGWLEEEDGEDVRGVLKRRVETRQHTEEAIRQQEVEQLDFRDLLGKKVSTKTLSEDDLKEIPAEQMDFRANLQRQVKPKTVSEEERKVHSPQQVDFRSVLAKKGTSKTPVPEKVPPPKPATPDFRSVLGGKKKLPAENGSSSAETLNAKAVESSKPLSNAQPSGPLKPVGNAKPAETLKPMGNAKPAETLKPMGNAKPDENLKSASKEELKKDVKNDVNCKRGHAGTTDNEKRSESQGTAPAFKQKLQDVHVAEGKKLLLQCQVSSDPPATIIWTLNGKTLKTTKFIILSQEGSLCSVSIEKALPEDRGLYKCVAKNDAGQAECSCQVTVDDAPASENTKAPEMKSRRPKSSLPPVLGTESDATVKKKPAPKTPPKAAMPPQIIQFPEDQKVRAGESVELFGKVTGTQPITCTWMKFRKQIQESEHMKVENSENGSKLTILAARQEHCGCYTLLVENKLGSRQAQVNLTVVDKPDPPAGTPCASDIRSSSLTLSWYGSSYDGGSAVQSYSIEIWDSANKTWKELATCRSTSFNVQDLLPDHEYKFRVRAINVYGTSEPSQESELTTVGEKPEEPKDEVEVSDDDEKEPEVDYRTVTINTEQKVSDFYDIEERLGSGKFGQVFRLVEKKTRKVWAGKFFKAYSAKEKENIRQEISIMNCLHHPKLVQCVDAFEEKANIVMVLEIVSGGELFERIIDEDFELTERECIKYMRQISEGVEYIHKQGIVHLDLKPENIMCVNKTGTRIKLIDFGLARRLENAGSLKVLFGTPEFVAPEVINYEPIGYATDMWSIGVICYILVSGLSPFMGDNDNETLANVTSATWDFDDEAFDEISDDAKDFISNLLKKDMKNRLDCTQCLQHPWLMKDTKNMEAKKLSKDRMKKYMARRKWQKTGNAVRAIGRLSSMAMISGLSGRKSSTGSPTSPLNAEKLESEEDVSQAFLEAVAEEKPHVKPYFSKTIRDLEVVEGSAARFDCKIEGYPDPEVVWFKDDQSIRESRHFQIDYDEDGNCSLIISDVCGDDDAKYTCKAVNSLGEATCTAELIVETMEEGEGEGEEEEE
The target of test [11] is T3, Mitogen-activated protein kinase 12 (Homo sapiens) (UniProt P53778).
T3 sequence (whole entry): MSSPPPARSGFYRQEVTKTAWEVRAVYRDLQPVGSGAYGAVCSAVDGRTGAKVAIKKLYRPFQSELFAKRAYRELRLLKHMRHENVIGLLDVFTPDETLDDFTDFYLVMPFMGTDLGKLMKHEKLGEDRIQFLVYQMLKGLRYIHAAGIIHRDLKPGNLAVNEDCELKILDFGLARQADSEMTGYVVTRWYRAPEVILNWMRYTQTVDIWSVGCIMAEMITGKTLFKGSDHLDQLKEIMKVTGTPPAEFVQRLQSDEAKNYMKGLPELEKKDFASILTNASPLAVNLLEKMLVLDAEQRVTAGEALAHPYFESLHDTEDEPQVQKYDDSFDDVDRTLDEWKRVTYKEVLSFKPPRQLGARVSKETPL
Nature of the test: Selectivity interaction (ActivX KiNativ screen (ex vivo kinase selectivity in human PBMCs)) EUB0001619a MAPK12. In kind it is cell-based. To be noted: PBMC, at 1 µM.

Chain of Serine/threonine-protein kinase PLK2 (Q9NYY3 whole entry, looked up): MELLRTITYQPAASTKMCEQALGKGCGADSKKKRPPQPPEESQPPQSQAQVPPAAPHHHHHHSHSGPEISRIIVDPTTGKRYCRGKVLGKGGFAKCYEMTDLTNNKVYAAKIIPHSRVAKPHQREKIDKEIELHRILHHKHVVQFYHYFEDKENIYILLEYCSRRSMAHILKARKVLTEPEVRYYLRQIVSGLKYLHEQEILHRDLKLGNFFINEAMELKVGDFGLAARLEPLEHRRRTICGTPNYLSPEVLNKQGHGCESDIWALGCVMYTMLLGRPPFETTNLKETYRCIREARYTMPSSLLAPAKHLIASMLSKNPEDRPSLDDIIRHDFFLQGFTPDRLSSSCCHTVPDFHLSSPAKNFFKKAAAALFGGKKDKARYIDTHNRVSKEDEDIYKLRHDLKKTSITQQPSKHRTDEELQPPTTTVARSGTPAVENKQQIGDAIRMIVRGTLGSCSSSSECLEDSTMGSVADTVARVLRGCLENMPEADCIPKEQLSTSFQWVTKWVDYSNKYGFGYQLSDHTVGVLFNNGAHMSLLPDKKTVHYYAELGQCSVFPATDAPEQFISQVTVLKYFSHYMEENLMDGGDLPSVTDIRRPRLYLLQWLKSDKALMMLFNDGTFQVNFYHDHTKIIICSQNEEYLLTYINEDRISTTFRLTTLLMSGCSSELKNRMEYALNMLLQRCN
Chain of Cyclin-dependent kinase 4/cyclin D1 (P11802 whole entry): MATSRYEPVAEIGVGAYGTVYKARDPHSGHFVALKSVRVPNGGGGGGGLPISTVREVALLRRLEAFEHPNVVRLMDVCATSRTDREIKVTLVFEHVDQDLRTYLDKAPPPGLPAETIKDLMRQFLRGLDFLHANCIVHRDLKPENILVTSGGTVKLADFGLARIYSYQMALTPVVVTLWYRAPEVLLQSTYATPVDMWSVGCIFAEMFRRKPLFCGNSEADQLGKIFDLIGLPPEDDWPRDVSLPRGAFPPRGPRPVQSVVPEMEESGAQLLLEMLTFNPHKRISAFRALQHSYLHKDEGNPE
Chain of Cyclin-dependent kinase 4/cyclin D1 (P24385 whole entry, further chain): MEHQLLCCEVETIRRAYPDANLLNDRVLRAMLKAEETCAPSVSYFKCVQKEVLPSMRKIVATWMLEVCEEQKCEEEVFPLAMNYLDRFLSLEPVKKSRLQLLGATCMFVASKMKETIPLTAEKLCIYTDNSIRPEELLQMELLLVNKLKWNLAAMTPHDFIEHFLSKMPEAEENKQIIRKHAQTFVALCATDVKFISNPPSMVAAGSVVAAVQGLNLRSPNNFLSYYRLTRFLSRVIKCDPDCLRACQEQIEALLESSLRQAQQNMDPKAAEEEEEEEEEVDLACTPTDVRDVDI

As for `Nc1cnc(N2CCc3cc(S(=O)(=O)Nc4c(F)cc(Cl)cc4F)cc(N4CCCC4=O)c32)nc1` [TP-020n], the % of control in test [1] is 100%.
For the compound `CCC(=O)N1CCN(c2ccc(-n3c(=O)ccc4cnc5ccc(-c6cnc7ccccc7c6)cc5c43)cc2C(F)(F)F)CC1`, in [2], the % of control turned out to be 100%.
In the case of `COc1cc(Nc2nc(C)cc(-c3cnn4nc(OC)ccc34)n2)cc(C(F)(F)F)c1`, the % of control in test [3] stood at 92%.
Turning to `C=CC(=O)Nc1cc(-n2c(=O)ccc3cnc4ccc(-c5ccc(NS(C)(=O)=O)cc5)cc4c32)ccc1C`, the % of control in test [4] (at 1 µM) and in [4] (at 10 µM) was 100% each time.
Usually Kd stands for the concentration at which binding is half-saturated. A higher Kd goes with weaker binding. Compound `Cn1cc(-n2cnc3c(NCc4nc5cc(Cl)c(Cl)cc5[nH]4)nc(N4CCOCC4)nc32)cn1` displayed a % of control in test [5] of 12.7%. In test [6], this compound had a Kd of over 10 µM.
Consider `CNC(=O)Nc1ccc(-c2nc(N3CC4CCC(C3)O4)c3cnn(C4CCC5(CC4)OCCO5)c3n2)cc1`, for which the % of control in test [7] was 100%.
Regarding `CC[C@@H]1[C@H](F)C(=O)N[C@@H]1COc1nccc2cc(C(N)=O)c(OC)cc12` [ZIMLOVISERTIB], the % of inhibition in [8] is 6.06%; in test [9], -1.4%.
Consider `COc1cc(N(C)c2ccnc3ccc(C(F)(F)F)cc23)cc(OC)c1OC`, for which the % binding in [10] is 92%.
As for `N#Cc1cccc(-c2c[nH]c3ncnc(N4CCOCC4)c23)c1`, in [11], the % of inhibition was -6%.
